From ChEMBL document CHEMBL1141120, “Structure-based design and discovery of protein tyrosine phosphatase inhibitors incorporating novel isothiazolidinone heterocyclic phosphotyrosine mimetics” (J Med Chem, 2005) come the findings set out here.

In general, pKi refers to the Ki on a negative log10 scale, so that one unit is a factor of ten. High values mean a low Ki, low ones a high Ki. For orientation: pIC50 means the IC50 on a negative log10 scale, so that one unit is a factor of ten. Low values mean a large IC50, high ones a small IC50.

pIC50, pKi: −log10 of the molar value.

In assay [1] the target is T1, Tyrosine-protein phosphatase non-receptor type 1 (Homo sapiens, UniProt P18031).
T1 sequence (P18031 whole entry): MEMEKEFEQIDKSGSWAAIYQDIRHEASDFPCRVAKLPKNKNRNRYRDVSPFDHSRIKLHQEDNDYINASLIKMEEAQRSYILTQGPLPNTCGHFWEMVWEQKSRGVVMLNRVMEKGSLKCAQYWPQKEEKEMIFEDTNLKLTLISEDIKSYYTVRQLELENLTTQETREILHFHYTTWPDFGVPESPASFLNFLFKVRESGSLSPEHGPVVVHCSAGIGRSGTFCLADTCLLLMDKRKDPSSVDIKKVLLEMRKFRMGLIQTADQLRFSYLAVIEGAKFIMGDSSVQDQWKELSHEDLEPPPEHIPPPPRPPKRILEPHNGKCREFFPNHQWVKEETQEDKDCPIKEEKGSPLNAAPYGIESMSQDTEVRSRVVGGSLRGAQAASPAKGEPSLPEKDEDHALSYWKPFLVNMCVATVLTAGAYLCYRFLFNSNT
The experiment in a line: Inhibition constant against protein-tyrosine phosphatase 1B by PNPP enzyme assay.

In assay [2] the target is T2, Tyrosine-protein phosphatase non-receptor type 2 (Homo sapiens, UniProt P17706).
T2 sequence (P17706 whole entry): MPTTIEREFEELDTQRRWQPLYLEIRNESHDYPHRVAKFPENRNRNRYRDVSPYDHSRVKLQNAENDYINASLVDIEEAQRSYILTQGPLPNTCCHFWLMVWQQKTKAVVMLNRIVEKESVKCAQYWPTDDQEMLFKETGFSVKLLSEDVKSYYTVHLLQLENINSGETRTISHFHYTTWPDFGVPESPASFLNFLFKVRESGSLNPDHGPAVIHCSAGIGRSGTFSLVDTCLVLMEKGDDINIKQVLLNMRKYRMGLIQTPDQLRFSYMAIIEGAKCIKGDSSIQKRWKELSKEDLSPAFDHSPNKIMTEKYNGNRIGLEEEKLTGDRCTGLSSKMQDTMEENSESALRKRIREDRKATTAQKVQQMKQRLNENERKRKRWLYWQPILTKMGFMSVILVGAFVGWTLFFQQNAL
The experiment in a line: Inhibitory concentration against T cell protein tyrosine phosphatase.

Assay [3] concerns the target T1, Tyrosine-protein phosphatase non-receptor type 1. The experiment in a line: Inhibitory concentration against protein-tyrosine phosphatase.

`CC(=O)N[C@@H](Cc1ccccc1)C(=O)N[C@@H](Cc1ccc([C@@H]2CC(=O)NS2(=O)=O)cc1)C(N)=O` showed a pKi in assay [1] of 6.74. Further, the figures for the pIC50 in assay [2] and in assay [3] were 6.87 and < 4.00, respectively.
